Measured values published in ChEMBL document CHEMBL1909046, “DrugMatrix in vitro pharmacology data”.

Legend:
[1] = target: T1, Muscarinic acetylcholine receptor M2 (Homo sapiens, UniProt P08172); type: cell membranes, CHO-K1, Membrane; conditions: cho-k1; further: in other assays of this panel Not Active means under 50% inhibition at 10 µM
T1 sequence (P08172 whole entry): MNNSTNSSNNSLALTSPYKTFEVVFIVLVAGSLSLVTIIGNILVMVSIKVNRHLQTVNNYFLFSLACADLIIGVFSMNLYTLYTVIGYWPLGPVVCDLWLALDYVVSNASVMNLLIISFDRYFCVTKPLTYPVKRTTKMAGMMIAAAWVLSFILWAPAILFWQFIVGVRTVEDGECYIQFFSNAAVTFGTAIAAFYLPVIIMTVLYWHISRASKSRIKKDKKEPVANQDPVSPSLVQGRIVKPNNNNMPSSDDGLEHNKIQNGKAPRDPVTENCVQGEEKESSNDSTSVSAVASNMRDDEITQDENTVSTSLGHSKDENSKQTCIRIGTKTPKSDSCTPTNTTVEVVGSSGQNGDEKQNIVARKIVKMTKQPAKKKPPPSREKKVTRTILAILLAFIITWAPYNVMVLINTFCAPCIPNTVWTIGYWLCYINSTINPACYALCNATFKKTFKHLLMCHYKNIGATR

[2] = DRUGMATRIX: Atrial Natriuretic Factor (ANF) radioligand binding (ligand: [125I] ANF (rat)); type: cell membranes, Cavia porcellus, Dunkin-Hartley, Adrenal gland, Membrane; conditions: Not Active = under 50% inhibition at 10 µM
[3] = target: 5-hydroxytryptamine receptor 2B (Homo sapiens, UniProt P41595); type: cell membranes, CHO-K1, Membrane; conditions: cho-k1; further: in other assays of this panel Not Active means under 50% inhibition at 10 µM
Acetylcholinesterase = Acetylcholinesterase (Homo sapiens, UniProt P22303); experiment: DRUGMATRIX: Acetylcholinesterase enzyme inhibition (substrate: acetylthiocholine); type: cell-based, HEK293; conditions: hek293; Not Active = under 50% inhibition at 10 µM
Cytochrome P450 2D6 = Cytochrome P450 2D6 (Homo sapiens, UniProt P10635); conditions: bti-tn-5b1-4; further: in other assays of this panel Not Active means under 50% inhibition at 10 µM
Leukotriene C4 synthase = target: T2, Leukotriene C4 synthase (Cavia porcellus, UniProt A6XA80); type: tissue-based, Lung;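 further: enzyme inhibition assay of leukotriene C4 synthase, using LTA4 as the substrate; in other assays of this panel Not Active means under 50% inhibition at 10 µM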
T2 sequence (A6XA80 whole entry): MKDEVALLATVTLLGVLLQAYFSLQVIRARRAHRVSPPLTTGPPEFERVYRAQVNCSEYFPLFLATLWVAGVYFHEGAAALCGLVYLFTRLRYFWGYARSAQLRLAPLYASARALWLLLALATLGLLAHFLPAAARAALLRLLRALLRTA

Melanocortin receptor 5 = Melanocortin receptor 5 (Homo sapiens, UniProt P33032); type: cell membranes, HEK293, Membrane; conditions: hek293; further: in other assays of this panel Not Active means under 50% inhibition at 10 µM
Melanocortin receptor 5, sequence (P33032 whole entry): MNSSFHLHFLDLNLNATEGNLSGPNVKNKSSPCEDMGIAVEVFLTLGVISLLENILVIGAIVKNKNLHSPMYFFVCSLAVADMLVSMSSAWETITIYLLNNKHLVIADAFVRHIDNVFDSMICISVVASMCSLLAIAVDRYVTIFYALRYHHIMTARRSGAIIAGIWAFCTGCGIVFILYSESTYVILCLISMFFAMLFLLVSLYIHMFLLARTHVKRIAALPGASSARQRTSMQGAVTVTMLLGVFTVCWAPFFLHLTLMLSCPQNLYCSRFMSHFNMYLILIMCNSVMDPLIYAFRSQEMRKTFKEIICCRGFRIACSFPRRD

Cytochrome P450 2D6, sequence (P10635 whole entry): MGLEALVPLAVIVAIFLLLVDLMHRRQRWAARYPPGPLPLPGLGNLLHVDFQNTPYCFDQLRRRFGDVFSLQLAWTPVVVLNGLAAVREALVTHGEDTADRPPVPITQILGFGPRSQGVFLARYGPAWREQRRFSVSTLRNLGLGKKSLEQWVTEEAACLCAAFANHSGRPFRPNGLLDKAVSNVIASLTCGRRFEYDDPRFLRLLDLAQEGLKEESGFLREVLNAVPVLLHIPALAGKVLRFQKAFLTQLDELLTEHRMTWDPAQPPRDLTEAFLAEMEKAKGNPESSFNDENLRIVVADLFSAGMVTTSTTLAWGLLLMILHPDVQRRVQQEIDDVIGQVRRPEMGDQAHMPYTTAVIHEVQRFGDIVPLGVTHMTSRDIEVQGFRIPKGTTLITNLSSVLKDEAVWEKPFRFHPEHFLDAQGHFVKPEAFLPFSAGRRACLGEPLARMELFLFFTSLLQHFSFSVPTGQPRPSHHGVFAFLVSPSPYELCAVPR
5-hydroxytryptamine receptor 2B, sequence (P41595 whole entry): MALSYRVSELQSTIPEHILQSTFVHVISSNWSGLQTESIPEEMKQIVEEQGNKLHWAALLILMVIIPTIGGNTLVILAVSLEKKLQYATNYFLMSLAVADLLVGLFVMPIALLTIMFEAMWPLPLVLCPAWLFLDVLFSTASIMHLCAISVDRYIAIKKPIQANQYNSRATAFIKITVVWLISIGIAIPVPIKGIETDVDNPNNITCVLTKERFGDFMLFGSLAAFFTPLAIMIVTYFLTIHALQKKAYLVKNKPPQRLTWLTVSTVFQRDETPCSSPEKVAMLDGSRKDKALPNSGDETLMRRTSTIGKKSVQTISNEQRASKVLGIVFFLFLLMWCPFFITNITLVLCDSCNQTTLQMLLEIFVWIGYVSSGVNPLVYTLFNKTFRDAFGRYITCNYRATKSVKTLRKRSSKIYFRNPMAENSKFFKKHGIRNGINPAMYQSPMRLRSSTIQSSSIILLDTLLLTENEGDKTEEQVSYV
Acetylcholinesterase, sequence (P22303 whole entry): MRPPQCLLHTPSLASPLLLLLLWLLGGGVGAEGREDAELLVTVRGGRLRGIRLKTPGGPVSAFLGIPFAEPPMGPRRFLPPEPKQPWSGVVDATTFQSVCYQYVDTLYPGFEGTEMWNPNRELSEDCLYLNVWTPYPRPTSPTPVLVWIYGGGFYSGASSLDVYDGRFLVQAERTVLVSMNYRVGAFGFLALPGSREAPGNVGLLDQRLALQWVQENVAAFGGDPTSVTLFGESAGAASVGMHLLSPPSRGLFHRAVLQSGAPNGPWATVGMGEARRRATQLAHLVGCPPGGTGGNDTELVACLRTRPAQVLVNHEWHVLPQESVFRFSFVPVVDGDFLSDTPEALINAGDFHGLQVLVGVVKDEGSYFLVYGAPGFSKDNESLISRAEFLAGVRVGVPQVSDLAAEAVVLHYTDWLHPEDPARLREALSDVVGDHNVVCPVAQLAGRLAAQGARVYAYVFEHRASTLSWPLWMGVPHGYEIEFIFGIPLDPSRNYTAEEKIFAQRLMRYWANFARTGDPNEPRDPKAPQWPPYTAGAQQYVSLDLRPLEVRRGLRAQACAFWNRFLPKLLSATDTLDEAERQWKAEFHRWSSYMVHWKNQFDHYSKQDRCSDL

Compound	IC50 [1]	IC50 [2]	Ki [2]	IC50 [3]	IC50 (Acetylcholinesterase)	IC50 (Cytochrome P450 2D6)	Ki (Cytochrome P450 2D6)	IC50 (Leukotriene C4 synthase)	IC50 (Melanocortin receptor 5)	Ki [1]	Ki [3]	Ki (Acetylcholinesterase)	Ki (Leukotriene C4 synthase)	Ki (Melanocortin receptor 5)
NC[C@H]1O[C@H](O[C@H]2[C@H](O)[C@@H](O[C@H]3O[C@H](CO)[C@@H](O)[C@H](N)[C@H]3O)[C@H](N)C[C@@H]2N)[C@H](N)C[C@@H]1O [TOBRAMYCIN]	Not Active	Not Active	Not Active	Not Active	Not Active	Not Active	Not Active	Not Active	Not Active	–	–	–	–	–
O=C(O)C(Cl)(Cl)Cl [TRICHLOROACETIC ACID]	Not Active	Not Active	Not Active	Not Active	Not Active	Not Active	Not Active	Not Active	Not Active	–	–	–	–	–
CC(=O)O[C@H]1C[C@@H]2CC[C@@H]3[C@H](CC[C@@]4(C)[C@H]3C[C@H]([N+]3(C)CCCCC3)[C@@H]4OC(C)=O)[C@@]2(C)C[C@@H]1N1CCCCC1.[Br-] [VECURONIUM BROMIDE]	Not Active	Not Active	Not Active	Not Active	Not Active	Not Active	Not Active	Not Active	Not Active	–	–	–	–	–
COc1cc(C(=O)NS(=O)(=O)c2ccccc2C)ccc1Cc1cn(C)c2ccc(NC(=O)OC3CCCC3)cc12 [ZAFIRLUKAST]	Not Active	Not Active	Not Active	Not Active	Not Active	Not Active	Not Active	Not Active	Not Active	–	–	–	–	–
Cc1cn([C@H]2C[C@H](N=[N+]=[N-])[C@@H](CO)O2)c(=O)[nH]c1=O [ZIDOVUDINE]	Not Active	Not Active	Not Active	Not Active	Not Active	Not Active	Not Active	Not Active	Not Active	–	–	–	–	–
STANNOUS FLUORIDE	Not Active	Not Active	Not Active	Not Active	Not Active	Not Active	Not Active	Not Active	Not Active	Not Active	Not Active	Not Active	Not Active	Not Active
THIMEROSAL	Not Active	Not Active	Not Active	Not Active	Not Active	3000 nM	–	Not Active	Not Active	Not Active	Not Active	Not Active	Not Active	Not Active
